Our source for the inhibition and IC50 values is ChEMBL document CHEMBL1135277, “Beta-carbolines as specific inhibitors of cyclin-dependent kinases” (Bioorg Med Chem Lett, 2002).

Some results are limits rather than exact numbers.

The target of experiment [1] is Cyclin-dependent kinase 2 (Homo sapiens) (UniProt P24941). Briefly: Percentage inhibition against cyclin dependent kinase 2 (CDK 2) at a concentration of 50 uM.
The target of experiment [2] is Cyclin-dependent kinase 2/cyclin A (Homo sapiens, UniProt P24941). Briefly: Inhibition of Cyclin-dependent kinase 2-cyclin A. It counts as protein-complex assay.
The target in experiment [3] is Tyrosine-protein kinase Fyn (Homo sapiens, UniProt P06241). Description: Inhibition of Fyn kinase.
Tyrosine-protein kinase Fyn, sequence (P06241 whole entry): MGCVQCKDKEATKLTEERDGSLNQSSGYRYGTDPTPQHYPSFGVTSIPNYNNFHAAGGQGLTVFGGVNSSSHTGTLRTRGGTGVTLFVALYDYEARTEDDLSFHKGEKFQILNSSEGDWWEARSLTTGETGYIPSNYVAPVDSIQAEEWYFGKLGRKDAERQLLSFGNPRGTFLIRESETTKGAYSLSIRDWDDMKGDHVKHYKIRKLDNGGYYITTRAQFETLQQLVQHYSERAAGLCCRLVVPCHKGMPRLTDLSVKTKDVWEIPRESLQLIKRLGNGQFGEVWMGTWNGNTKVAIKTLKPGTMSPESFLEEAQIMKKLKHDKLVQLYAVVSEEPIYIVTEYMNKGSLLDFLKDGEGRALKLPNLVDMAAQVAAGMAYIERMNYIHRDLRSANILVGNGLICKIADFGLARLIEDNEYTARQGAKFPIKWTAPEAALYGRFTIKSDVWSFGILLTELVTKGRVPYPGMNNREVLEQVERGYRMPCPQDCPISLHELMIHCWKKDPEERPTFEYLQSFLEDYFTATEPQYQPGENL
The target in the next experiment is Protein kinase C (PKC). Description: Inhibition of protein kinase C. In kind it is protein assay.
The target of experiment [4] is Cyclin-dependent kinase 1/cyclin B (Homo sapiens, UniProt P06493). Briefly: Inhibition of Cell division cycle 2 (CDK1)-cyclin B. It counts as protein-complex assay.
Experiment [5] concerns the target Cyclin-dependent kinase 5/CDK5 activator 1 (Homo sapiens, UniProt Q00535). Briefly: Inhibition of Cyclin-dependent kinase 5-p35nck5a. In kind it is protein-complex assay.
Experiment [6] addresses Tyrosine-protein kinase Lyn (Homo sapiens, UniProt P07948). Description: Inhibition of Lyn tyrosine kinase.
The target in experiment [7] is Tyrosine-protein kinase Lck (Homo sapiens, UniProt P06239). Description: Inhibition of p56 Lck tyrosine kinase.
Tyrosine-protein kinase Lck, sequence (P06239 whole entry): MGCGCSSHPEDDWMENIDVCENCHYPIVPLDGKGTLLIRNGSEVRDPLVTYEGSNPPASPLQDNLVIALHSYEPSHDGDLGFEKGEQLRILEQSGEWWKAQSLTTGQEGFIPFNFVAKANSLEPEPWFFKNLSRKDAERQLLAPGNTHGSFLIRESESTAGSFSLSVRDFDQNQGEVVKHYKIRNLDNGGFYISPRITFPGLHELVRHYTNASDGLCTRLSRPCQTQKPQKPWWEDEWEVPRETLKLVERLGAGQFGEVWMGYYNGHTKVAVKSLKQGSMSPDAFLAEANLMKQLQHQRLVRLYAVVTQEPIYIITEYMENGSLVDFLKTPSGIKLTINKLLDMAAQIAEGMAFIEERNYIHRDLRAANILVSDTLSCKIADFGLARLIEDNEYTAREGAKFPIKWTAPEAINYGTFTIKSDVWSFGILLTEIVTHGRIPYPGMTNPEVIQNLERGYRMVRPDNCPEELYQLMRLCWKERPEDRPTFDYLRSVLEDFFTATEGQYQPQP
A short description of experiment [8]: Inhibition of Mitogen-activated protein kinase.

Tyrosine-protein kinase Lyn, sequence (P07948 whole entry): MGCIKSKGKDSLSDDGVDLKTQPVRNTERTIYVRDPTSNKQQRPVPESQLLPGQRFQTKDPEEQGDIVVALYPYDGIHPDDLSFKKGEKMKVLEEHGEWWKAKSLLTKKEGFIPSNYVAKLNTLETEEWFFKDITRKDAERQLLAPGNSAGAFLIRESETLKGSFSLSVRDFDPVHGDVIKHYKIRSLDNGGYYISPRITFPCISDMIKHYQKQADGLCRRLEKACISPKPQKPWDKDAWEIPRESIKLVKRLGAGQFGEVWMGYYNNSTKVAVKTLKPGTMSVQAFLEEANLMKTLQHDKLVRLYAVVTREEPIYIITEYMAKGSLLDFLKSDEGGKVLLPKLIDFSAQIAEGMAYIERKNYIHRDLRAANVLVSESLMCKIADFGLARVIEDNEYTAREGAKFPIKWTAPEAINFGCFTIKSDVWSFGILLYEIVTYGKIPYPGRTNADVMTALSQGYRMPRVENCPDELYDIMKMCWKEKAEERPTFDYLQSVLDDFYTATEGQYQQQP
Cyclin-dependent kinase 5/CDK5 activator 1, sequence (Q00535 whole entry): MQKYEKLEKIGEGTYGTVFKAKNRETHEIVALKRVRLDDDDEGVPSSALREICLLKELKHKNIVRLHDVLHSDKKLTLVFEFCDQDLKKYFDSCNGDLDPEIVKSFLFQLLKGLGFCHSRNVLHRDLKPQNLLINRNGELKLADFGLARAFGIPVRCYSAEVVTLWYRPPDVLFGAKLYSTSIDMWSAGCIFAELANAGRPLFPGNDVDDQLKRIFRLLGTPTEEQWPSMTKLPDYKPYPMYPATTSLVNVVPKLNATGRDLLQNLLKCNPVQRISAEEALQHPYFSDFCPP
Cyclin-dependent kinase 5/CDK5 activator 1, sequence (Q15078 whole entry, further chain): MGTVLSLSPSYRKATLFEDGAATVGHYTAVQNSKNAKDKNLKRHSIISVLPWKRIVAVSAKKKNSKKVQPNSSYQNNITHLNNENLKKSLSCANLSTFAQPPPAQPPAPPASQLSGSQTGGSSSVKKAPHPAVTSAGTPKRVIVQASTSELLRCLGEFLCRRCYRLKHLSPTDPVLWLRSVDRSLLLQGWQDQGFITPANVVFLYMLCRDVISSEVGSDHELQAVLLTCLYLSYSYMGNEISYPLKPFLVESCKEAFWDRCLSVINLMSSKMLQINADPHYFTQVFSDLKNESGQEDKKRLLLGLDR

In experiment [1], `COc1ccc2[nH]c3c(C)nccc3c2c1` gave an inhibition of 2%.
On the same count and under the same terms, the result for `O=[N+]([O-])c1ccc(-c2[nH]ccc3c4ccccc4nc2-3)cc1Cl` reads 4%; that for `CC(=O)OCCOc1ccc2c(c1)[nH]c1c(C)nccc12`, 23%.
For the compound `CCOC(COc1ccc2c(c1)[nH]c1c(C)nccc12)OCC`, the inhibition in experiment [1] is 1%.
For `O=[N+]([O-])c1ccc(Cl)c(-c2[nH]ccc3c4ccccc4nc2-3)c1`, the IC50 in experiment [2] was 22 µM; in [3], > 250 µM; on Protein kinase C (PKC) it was > 250 µM; in experiment [4] it was 45 µM; in experiment [5], > 1200 µM; in experiment [6], > 250 µM. Besides, in experiment [1], the inhibition turned out to be 70%.
`COc1ccc2[nH]c3c(C(=O)O)nccc3c2c1` displayed an inhibition in experiment [1] of 12%.
Still for that read-out and setting: then `CCCNC(=O)Oc1ccc2c(c1)[nH]c1c(C)nccc12`, with 61%.
On the same count and under the same terms, the result for `Cc1nccc2c1[nH]c1cc(OCCOC(=O)c3ccccc3)ccc12` reads 13%.
In the case of `COc1ccc2c(c1)[nH]c1c(C)nccc12` [HARMINE], the IC50 in [2] was 35 µM; in [3], > 250 µM; in [7], > 250 µM; against Protein kinase C (PKC), > 250 µM; in experiment [8] it was > 250 µM; in experiment [6] it was > 250 µM. The inhibition in experiment [1] came out at 62%.
Regarding `Fc1ccc(-c2[nH]ccc3c4ccccc4nc2-3)c(F)c1`, the inhibition in experiment [1] worked out at 56%.
Still for that read-out and setting: then `CCCCOc1ccc2c(c1)[nH]c1c(C)nccc12`, with 50%.
`Cc1[nH]cnc1-c1nccc2c1[nH]c1ccccc12`: the IC50 in [2] was 6 µM; in experiment [3] it was > 250 µM; at Protein kinase C (PKC), > 250 µM; in [8], > 250 µM; in [4] it was 25 µM; in experiment [6], > 250 µM. Also, the inhibition in experiment [1] was 89%.
Compound `Clc1ccc(-c2nccc3c2[nH]c2ccccc23)cc1` showed an inhibition in [1] of 48%.
Same read-out and setting: the result for `Cc1nccc2c1[nH]c1cc(Oc3ncc(C(F)(F)F)cc3Cl)ccc12` reads 10%.
Take `Fc1cccc(-c2nccc3c2[nH]c2ccccc23)c1`: in experiment [1], the inhibition stood at 6%.
Same read-out and setting: the result for `Brc1ccccc1-c1[nH]ccc2c3ccccc3nc1-2` reads 10%.
Still for that read-out and setting: then `Cc1ccc2c(c1)[nH]c1c(C)nccc12`, with 23%.
In experiment [1], `c1ccc(-c2nccc3c2[nH]c2ccccc23)cc1` registered an inhibition of 13%.
The same measure, in the same setting: then `c1ccc2c(c1)[nH]c1c(-c3c[nH]cn3)nccc12`, with 30%; and `FC(F)(F)c1[nH]ccc2c3ccccc3nc1-2`, with 39%; and `Cc1nccc2c1[nH]c1ccccc12`, with 47%.
With `c1ccc2c(c1)[nH]c1cnccc12`, in experiment [1], the inhibition is 37%.
In [1], `O=[N+]([O-])c1ccc(-c2[nH]ccc3c4ccccc4nc2-3)cc1` had an inhibition of 31%.
Still for that read-out and setting: then `CCc1nccc2c1[nH]c1cc(F)ccc12`, with 54%; and `Cc1ccc2c(c1)[nH]c1c(-c3ccccc3F)nccc12`, with 36%.
The same measure, in the same setting: the result for `CCCc1ncc(N)c2c1[nH]c1ccccc12` reads 22%; that for `CC(C)(C)c1[nH]ccc2c3ccccc3nc1-2`, 50%.
Still for that read-out and setting: the result for `Cc1nccc2c1[nH]c1cc(OCCC3(C)OCC(C)(C)CO3)ccc12` reads 27%; that for `Fc1ccccc1-c1[nH]ccc2c3ccccc3nc1-2`, 64%.
In turn, `CC(C)c1nccc2c1[nH]c1ccccc12` showed an inhibition in experiment [1] of 44%.
The same measure, in the same setting: then `Cc1nccc2c1[nH]c1cc(OCCN3C(=O)c4ccccc4C3=O)ccc12`, with 8%; and `Fc1ccc(-c2nccc3c2[nH]c2ccccc23)cc1`, with 20%.
On the same count and under the same terms, the result for `Cc1nccc2c1[nH]c1ccc(F)cc12` reads 46%.
`Cc1nccc2c1[nH]c1cc(F)ccc12`: the IC50 in experiment [2] is 30 µM; in experiment [3], > 250 µM; in experiment [7], > 250 µM; at Protein kinase C (PKC) it was > 250 µM; in experiment [8] it was > 250 µM; in experiment [4], 42 µM. In addition, in experiment [6], the IC50 is > 250 µM. Moreover, the inhibition in experiment [1] is 65%.
On to `CCOc1ccc2c(c1)[nH]c1c(C)nccc12`, for which the inhibition in experiment [1] turned out to be 43%.
Compound `O=[N+]([O-])c1ccccc1-c1[nH]ccc2c3ccccc3nc1-2` came in with an inhibition in experiment [1] of 43%.
Same read-out and setting: then `COC(=O)Cc1nccc2c1[nH]c1ccccc12`, with 11%; and `Clc1cccc(-c2nccc3c2[nH]c2ccccc23)c1`, with 32%; and `Clc1ccccc1-c1[nH]ccc2c3ccccc3nc1-2`, with 69%.
The same measure, in the same setting: then `N#Cc1ccccc1-c1[nH]ccc2c3ccccc3nc1-2`, with 8%; and `O=[N+]([O-])c1cccc(-c2[nH]ccc3c4ccccc4nc2-3)c1`, with 19%.
The same measure, in the same setting: then `CC1=NCCc2c1[nH]c1cc(O)ccc21`, with 13%.
In turn, `Cc1ccc2[nH]c3c(C)nccc3c2c1` yielded an inhibition in experiment [1] of 15%.
Same read-out and setting: then `Cc1nccc2c1[nH]c1cccc(C)c12`, with 30%.
The same measure, in the same setting: the result for `N#Cc1cccc(-c2nccc3c2[nH]c2ccccc23)c1` reads 31%; that for `Cc1nccc2c1[nH]c1cc(OCCO)ccc12`, 4%.
Take `Cc1nccc2c1[nH]c1cc(OCC(N)=O)ccc12`: in [1], the inhibition was found to be 15%.
On the same count and under the same terms, the result for `CCCc1nccc2c1[nH]c1ccccc12` reads 43%.
On the same count and under the same terms, then `Cc1nccc2c1[nH]c1cc(OCC(=O)OCc3ccccc3)ccc12`, with 57%; and `Fc1ccc2c(c1)[nH]c1c(-c3ccccc3)nccc12`, with 57%; and `Cc1nccc2c1[nH]c1cc(OC(=O)NC3CCCCC3)ccc12`, with 53%.
`COc1ccc2c3c([nH]c2c1)C(C)=NCC3` returned an inhibition in experiment [1] of 10%.
On the same count and under the same terms, the result for `CCCc1nccc2c1[nH]c1cc(F)ccc12` reads 60%.
Same read-out and setting: the result for `Fc1ccc2c(c1)[nH]c1c(-c3ccccc3F)nccc12` reads 55%; that for `Cc1ccc(-c2[nH]ccc3c4ccccc4nc2-3)c(C)c1`, 5%.
The same measure, in the same setting: the result for `COc1ccc(-c2nccc3c2[nH]c2ccccc23)cc1` reads 6%; that for `Cc1[nH]cnc1-c1[nH]ccc2c3ccc(F)cc3nc1-2`, 51%.
In [1], `COc1cccc(-c2[nH]ccc3c4ccccc4nc2-3)c1` came in with an inhibition of 5%.
The compound `Cc1[nH]ccc2c1[nH]c1cc(=O)ccc12` displayed an inhibition in experiment [1] of 69%.
On the same count and under the same terms, the result for `N#Cc1ccc(-c2nccc3c2[nH]c2ccccc23)cc1` reads 29%; that for `Cc1nccc2c1[nH]c1cccc(F)c12`, 55%.
On the same count and under the same terms, then `Cc1nccc2c1[nH]c1ccc(OC(=O)c3ccccc3)cc12`, with 2%.
